Like-named read-outs stand apart in the source and are kept apart here.
B1: CS1003: full-length, fully humanized immunoglobulin G4 (IgG4) monoclonal antibody against PD-1 (antibody, chains of the INN, looked up, V domains shown)
VH: QVQLVQSGAEVKKPGSSVKVSCKASGFTFTTYYISWVRQAPGQGLEYLGYINMGSGGTNYNEKFKGRVTITADKSTSTAYMELSSLRSEDTAVYYCAIIGYFDYWGQGTMVTVSS
VL: DVVMTQSPLSLPVTLGQPASISCRSSQSLLDSDGGTYLYWFQQRPGQSPRRLIYLVSTLGSGVPDRFSGSGSGTDFTLKISRVEAEDVGVYYCMQLTHWPYTFGQGTKLEIK

Tests used:
[1] = Stability experiments of crystal forms (60°C/75% RH, HPLC related substances); format: physicochemical; settings: for Stability under high temperature and high humidity conditions (in words): 60°C/75% humidity, 1 week
Procedure: A certain amount (approximately 10 mg) of two parts of the crystal form A of the compound of formula (I), the crystal form B of the compound of formula (II) and the crystal form C of the compound of formula (III) were weighed in parallel, and added to a 40 mL of sample bottle, which were placed in a constant temperature and humidity box at 60° C./75% humidity for 1 week. Another sample (about 10 mg) of the crystal form A of the compound of formula (I), the crystal form B of the compound of formula (II) and the crystal form C of the compound of formula (III) were placed in a refrigerator at −20° C. as control samples. At the time point of investigation, the corresponding test sample was taken out of the stability box, the aluminum foil paper was removed from the sample bottle of 60° C./75% RH, and the sample bottle was covered with a bottle cap. The 0-day samples were taken out of the refrigerator and analyzed after the samples were restored to room temperature.

[2] = Pharmacokinetic experiment in mice, single intravenous and oral administration; format: in vivo; settings: female, mouse, plasma; Balb/c mice, oral vs intravenous; read-out: Bioavailability F
Procedure: Experimental materials: Balb/c mice (female, 15-30 g, 7-9 weeks old, Shanghai Lingchang) were used.
Experimental method: The rodent pharmacokinetic characteristics of the compound after intravenous injection and oral administration were tested by a standard protocol. In the experiment, the candidate compound was formulated into a clear solution and given to mice by a single intravenous injection and a single oral administration. The solvent for intravenous injection (IV) was a mixed solvent of 5% DMSO/5% polyethylene glycol hydroxystearate/90% water, and the solvent for oral (PO) was a mixed solvents of 1% tween80, 9% PEG400, 90% H2O (pH=3). Whole blood samples within 48 hours were collected, centrifuged at 3000 g for 15 minutes at 4 degrees, separated the supernatant to obtain a plasma sample. Then 20 times the volume of acetonitrile solution containing internal standard was added to precipitate the protein, the mixture was centrifuged to take the supernatant, equal volume of water was added and centrifuge to take the supernatant again for injection. The blood drug concentration was quantitatively analyzed by LC-MS/MS analysis method, and the pharmacokinetic parameters were calculated, such as peak concentration, peak time, clearance rate, half-life, area under the drug-time curve, bioavailability, etc.

[3] = In vivo PK experiment, plasma and tumor tissue on day 20 of the efficacy experiment; parameters: species or system BALB/c mice; settings: BALB/c, mouse, oral; for concentration at 1 h / concentration at 4 h: tumor, read-out: Tumor drug concentration
Procedure: Blood was collected and tissues were collected from each group of the experiment at different time points (0 h, 0.25 h, 0.5 h, 1 h, 2 h, 4 h, 8 h and 24 h) on day 20 of the administration of experimental embodiment 3. The pharmacokinetic parameters of each experimental group were shown in Table 12, and the biological ratios of the tumor tissue drug concentration and the corresponding blood sampling point tumor tissue drug concentration and plasma drug concentration of each experimental group were shown in Table 13.

[4] = test system: mouse colon cancer CT26 cells; test: In vivo drug efficacy experiment, subcutaneous CT26 allograft tumor; parameters: species or system BALB/c mice; settings: CS1003 1 mg/kg intraperitoneal, day 20
Procedure: Experimental materials: BALB/c mice (female); mouse colon cancer CT26 cells (cell bank of the Type Culture Collection Committee of the Chinese Academy of Sciences), were cultured in a monolayer in vitro, and the culture condition was RPMI-1640 medium containing 10% fetal bovine serum, and cultured in 5% CO2 incubator at 37° C. Trypsin-EDTA was used for conventional digestion and passage. When the cells were in the exponential growth phase and the saturation was 80%-90%, the cells were collected and counted.
Compound preparation: The compound of formula (II-1) was weighed and added to a solvent (10% PEG400+90% (10% Cremophor aqueous solution)) to prepare samples of 2.5 mg/mL, 5 mg/mL, and 10 mg/mL, respectively. […]
Experimental operation: The cells in Dulbecco's phosphate buffer were resuspended at a density of 3×10^6 cells/mL. […] During the entire experiment, the animals were weighed and monitored daily. […] The tumor diameter was measured with vernier calipers twice a week. […]
The anti-tumor efficacy of the compound was evaluated by GI (%) or relative tumor proliferation rate T/C (%). […]
The statistical analysis was based on the relative tumor volume and tumor weight at the end of the experiment using SPSS software. The comparison between the two groups was analyzed by t-test, and the comparison between three or more groups was analyzed by one-way ANOVA. […]

| Molecule | Impurity at relative retention time 0.36 ([1]; 0 day (control sample, -20°C)) | Impurity at relative retention time 0.45 ([1]; 0 day (control sample, -20°C)) | Impurity at relative retention time 0.49 ([1]; 0 day (control sample, -20°C)) | Impurity at relative retention time 0.67 ([1]; 0 day (control sample, -20°C)) | Impurity at relative retention time 0.70 ([1]; 0 day (control sample, -20°C)) | Impurity at relative retention time 1.18 ([1]; 0 day (control sample, -20°C)) | Total impurities % ([1]; 0 day (control sample, -20°C)) [%] | Impurity at relative retention time 0.36 ([1]; 60 C./75% RH, one week) | Impurity at relative retention time 0.45 ([1]; 60 C./75% RH, one week) | Impurity at relative retention time 0.49 ([1]; 60 C./75% RH, one week) | Impurity at relative retention time 0.67 ([1]; 60 C./75% RH, one week) | Impurity at relative retention time 0.70 ([1]; 60 C./75% RH, one week) | Impurity at relative retention time 1.18 ([1]; 60 C./75% RH, one week) | Total impurities % ([1]; 60 C./75% RH, one week) [%] | Stability under high temperature and high humidity conditions (in words) [1] | also measured |
| --- | --- | --- | --- | --- | --- | --- | --- | --- | --- | --- | --- | --- | --- | --- | --- | --- |
| Nc1nc(-c2ccc(F)cc2)c(-c2ccc3ncnn3c2)c2nccnc12.O=C(O)/C=C\C(=O)O | 0.06 | 0.09 | 0.09 | 0.05 | 0.11 | 0.29 | 0.69 | 0.05 | 0.09 | 0.09 | 0.05 | 0.12 | 0.29 | 0.69 | good stability | – |
| Nc1nc(-c2ccc(F)cc2)c(-c2ccc3ncnn3c2)c2nccnc12 [Compound of formula (II-1)] | – | – | – | – | – | – | – | – | – | – | – | – | – | – | – | bioavailability [2]: 30.4%; concentration at 1 h ([3]; 25 mpk, Group 4, 25 mpk + CS1003, time point 1 h): 3.48 µM; concentration at 4 h ([3]; 25 mpk, Group 4, 25 mpk + CS1003, time point 4 h): 0.925 µM; concentration at 1 h ([3]; 50 mpk, Group 5, 50 mpk once a day + CS1003, time point 1 h): 9.96 µM; concentration at 4 h ([3]; 50 mpk, Group 5, 50 mpk once a day + CS1003, time point 4 h): 1.66 µM; concentration at 4 h ([3]; 50 mpk, Group 8, 50 mpk twice a day + CS1003, time point 4 h): 3.02 µM; concentration at 1 h ([3]; 100 mpk, Group 6, 100 mpk + CS1003, time point 1 h): 18.7 µM; concentration at 4 h ([3]; 100 mpk, Group 6, 100 mpk + CS1003, time point 4 h): 3.03 µM; Kp at 1 h ([3]; tumor/plasma, Group 4, 25 mpk + CS1003, time point 1 h, read-out: T/P Ratio (compound exposure in tumor tissue and plasma)): 0.7 |
| Nc1nc(-c2ccc(F)cc2)c(-c2ccc3ncnn3c2)c2nccnc12 [Crystal form B of the compound of formula (II)] | 0.09 | 0.10 | 0.09 | 0.05 | 0.15 | 0.40 | 0.87 | 0.09 | 0.10 | 0.09 | 0.05 | 0.15 | 0.40 | 0.87 | good stability | – |
| Nc1nc(-c2ccc(F)cc2)c(-c2ccc3ncnn3c2)c2nccnc12 [Crystal form C of the compound of formula (III)] | 0.05 | 0.09 | 0.08 | 0.04 | 0.09 | 0.50 | 0.96 | 0.05 | 0.09 | 0.08 | 0.04 | 0.09 | 0.52 | 1.16 | good stability | – |
| B1 | – | – | – | – | – | – | – | – | – | – | – | – | – | – | – | Tumor volume [4]: 487.34±109.07 mm^3; Tumor inhibition rate GI ([4]; no significant difference with solvent control): 42.47% |

— patent US12583869B2, “Salt form and crystal form of A2A receptor antagonist and preparation method therefor” (CSTONE PHARMACEUTICAL (SUZHOU) CO., LTD., priority 2019, dated 2026)
